Experiments:
[1] = system: NMDA receptor/ionophor complex, allosteric modulatory (glycine) site; conditions: literature; cited from earlier work
[2] = target: T1, glycine site of the NMDA receptor complex (Rattus norvegicus, UniProt P35439); assay: [3H]-glycine binding (Test 1); conditions: [3H]-glycine 10 nM, rat cerebral cortical membrane, 0° C., 10 min, pH 7.1
T1 construct: thawed rat cerebral cortical membrane homogenate; from tissue; host or cells: rat cerebral cortex, membrane homogenate
Description: The glycine site binding activity of these compounds of the present invention can be illustrated by determining their capability for displacing radioactively labelled glycine from the glycine site.
The displacement activity of the compounds may be shown by determining the IC50 value which represents the concentration (μM) which causes a displacement of 50% of the specific binding of [^3 H]-glycine.
1 ml of thawed rat cerebral cortical membrane homogenate in HEPES-Tris (5 mM) and MgCl2 (1 mM) pH 7.1 were incubated at 0° C. for 10 min. with 25 μl [^3 H]-glycine (10 nM final concentration) and the test compound and buffer. Non-specific binding was determined by incubating with D-serine (1 mM final concentration). The binding reaction was terminated by centrifugation at 15,000×g at 4° C. followed by washing of the pellet with three times 3 ml of ice-cold buffer. Bound radioactivity was measured by scintillation counting. IC50 was determined by Hill analysis of at least four concentrations of test compound.

[3] = target: T2, NMDA receptor glycine site (glycine enhanced [3H]-MK-801 binding) (Rattus norvegicus, UniProt P35439); assay: Antagonism of glycine enhanced [3H]-MK-801 binding (Test 2); conditions: Schild analysis; [3H]-MK-801 1 nM, glutamate 300 nM, rat cerebral membrane, 23° C., 60 min, pH 7.40
T2 construct: thawed and extensively washed rat cerebral membrane homogenate; from tissue; host or cells: rat cerebrum, extensively washed membrane homogenate
Description: The glycine antagonism is measured by determining the Ki value which represents the dissociation constant (μM) of the receptor-antagonist complex.
1 ml of thawed and extensively washed rat cerebral membrane homogenate in HEPES-NaOH (20 mM) pH 7.40 were incubated at 23° C. for 60 min. with 25 μl [^3 H]-MK-801 (1 nM final concentration), 25 μl glutamate (300 nM final concentration), test compound in concentrations corresponding to 0, 0.5, 2 and 5 times the IC50 value from the [^3 H]-glycine binding assay (test 1) for each concentration of glycine (10; 100; 1,000; 10,000 and 100,000 nM final concentration). The binding reaction was terminated by adding 5 ml of ice-cold buffer followed by rapid filtration through Whatman GF/C glass fiber filters and 5 ml wash with ice-cold buffer. Bound radioactivity was measured by scintillation counting. Ki values were determined by Schild analysis of the data using
log(dosis ration-1)=log[Inhibitor]-log(Ki).

[4] = system: NMDA stimulated [3H]-GABA release; assay: Inhibition of NMDA stimulated [3H]-GABA release from cultured mouse cerebral cortex interneurons (Test 3); format: cell-based; conditions: 3 μg/ml NMDA, 37° C.
Description: The NMDA antagonistic properties of the compounds is illustrated by determining their capability to antagonize NMDA stimulated [^3 H]-GABA release from cultured mouse cortex neurons. The NMDA antagonistic activity of the compounds may be shown by determining the IC50 value, which represents the concentration (μM) which inhibits 50% of NMDA induced [^3 H]-GABA release.
Release experiments are performed using the model described by Drejer et al. (Life Sci. 38, 2077 (1986)). To cerebral cortex interneurons cultured in petri dishes (30 mm) are added 100 μg/ml 3-vinyl-GABA one hour before the experiment in order to inhibit degradation of GABA in the neurons. 30 min. before the experiment 5 μCi [^3 H]-GABA is added to each culture and after this preloading period the cells are washed twice with HEPES buffered saline (HBS) containing 10 mM HEPES, 135 mM NaCl, 5 mM KCl, 0.6 mM MgSO4, 1.0 mM CaCl2 and 6 mM D-glucose; pH 7 and placed in a superfusion system. This system consists of a peristaltic pump continuously delivering thermostated 37° C. superfusion medium from a reservoir to the top of a slightly tilted petri dish. The cell monolayer at the bottom of the dish is covered with a piece of nylon mesh to facilitate dispersion of medium over the cell layer. The medium is continuously collected from the lower part of the dish and delivered to a fraction collector. Initially, the cells are superfused with HBS for 15 min. (flow rate 2 ml/min.). Then cells are stimulated for 30 sec. every 4 min. by changing the superfusion medium from HBS to a corresponding medium containing NMDA and antagonist according to the following scheme:
Stimulation no. 1:3 μg/ml NMDA
Stimulation no. 2:3 μg/ml NMDA+0.3 μg/ml antagonist
Stimulation no. 3:3 μg/ml NMDA+3.0 μg/ml antagonist
The release of [^3 H]-GABA in the presence of NMDA is corrected for the mean basal release before and after stimulation. The stimulated release in the presence of antagonist is expressed relative to the stimulated release by NMDA alone and the IC50 value is calculated.

NMDA receptor = conditions: cited from earlier work

| SMILES | IC50 [2] | Ki [3] | IC50 [4] | further results |
| --- | --- | --- | --- | --- |
| O=C(O)c1cc(O)c2ccc(Cl)cc2n1 [7-chlorokynurenate] |  |  |  | agonist/antagonist activity at the glycine site [1]: quite strong, but non-selective antagonists of glycine at the glycine site |
| N#Cc1cc2[nH]c(=O)c(=O)[nH]c2cc1[N+](=O)[O-] [CNQX, 6-cyano-7-nitroquinoxaline-2,3-dione] |  |  |  | agonist/antagonist activity at the glycine site [1]: weak antagonists |
| C[C@@H](N)C(=O)O [D-alanine] |  |  |  | agonist/antagonist activity at the glycine site [1]: strong agonist activity |
| N[C@@H]1CONC1=O [D-cycloserine] |  |  |  | agonist/antagonist activity at the glycine site [1]: partial agonists |
| N[C@H](CO)C(=O)O [D-serine] |  |  |  | agonist/antagonist activity at the glycine site [1]: strong agonist activity |
| O=C(O)Cn1c(=O)c(=O)[nH]c2cc(Br)ccc21 [Example 3, 6-Bromo-1-carboxymethylquinoxaline-2,3(1H,4H)-dione] | 544 nM | 127 nM | 505 nM |  |
| O=C(O)Cn1c(=O)c(=O)[nH]c2cc(Cl)ccc21 [Example 6, 1-Carboxymethyl-6-chloroquinoxaline-2,3(1H,4H)-dione] | 520 nM | 3400 nM | 394 nM |  |
| O=C(O)Cn1c(=O)c(=O)[nH]c2ccc([N+](=O)[O-])cc21 [Example 19, 1-Carboxymethyl-7-nitroquinoxaline-2,3(1H,4H)-dione] | 7000 nM |  |  |  |
| NC1CCN(O)C1=O (centres unmarked) [HA-966, 3-amino-1-hydroxy-2-pyrrolidone] |  |  |  | agonist/antagonist activity at the glycine site [1]: weak antagonists |
| NCC(=O)O [glycine] |  |  |  | glycine site binding affinity [1]: high affinity binding; effect on NMDA receptor agonist induced responses (NMDA receptor): increase NMDA receptor agonist induced responses |
| O=C1C[C@@H]2OCC=C3CN4CC[C@]56c7ccccc7N1[C@H]5[C@H]2[C@H]3C[C@H]46 [strychnine] |  |  |  | sensitivity of the glycine response to strychnine (NMDA receptor; cultured neurons, literature): insensitive |

Second part, led by results:

| IC50 [2] | Ki [3] | IC50 [4] | SMILES | further results |
| --- | --- | --- | --- | --- |
| 350 nM | 162 nM | 163 nM | O=C(O)Cn1c(=O)c(=O)[nH]c2cc(Cl)c(Cl)cc21 [Example 1, 1-Carboxymethyl-6,7-dichloroquinoxaline-2,3(1H,4H)-dione] |  |
| 500 nM | 118 nM | 328 nM | O=C(O)Cn1c(=O)c(=O)[nH]c2cc(F)c(F)cc21 [Example 4, 1-Carboxymethyl-6,7-difluoroquinoxaline-2,3(1H,4H)-dione] |  |
| 554 nM | 212 nM | 509 nM | Cc1cc2[nH]c(=O)c(=O)n(CC(=O)O)c2cc1C [Example 5, 1-Carboxymethyl-6,7-dimethylquinoxaline-2,3(1H,4H)-dione] |  |
| 2000 nM |  |  | O=C(O)Cn1c(=O)c(=O)[nH]c2cc([N+](=O)[O-])ccc21 [Example 7, 1-Carboxymethyl-6-nitroquinoxaline-2,3(1H,4H)-dione] |  |
| 2200 nM | 770 nM | 1880 nM | CCCCC(C(=O)O)n1c(=O)c(=O)[nH]c2ccccc21 (centres unmarked) [Example 8, 1-((1-Carboxy)pentyl)-quinoxaline-2,3(1H,4H)-dione] |  |
| 5000 nM | 1900 nM | 2860 nM | CCCC(C(=O)O)n1c(=O)c(=O)[nH]c2ccccc21 (centres unmarked) [Example 9, 1-((1-Carboxy)butyl)quinoxaline-2,3(1H,4H)-dione] |  |
| 8000 nM |  | 2620 nM | O=C(O)C(c1ccccc1)n1c(=O)c(=O)[nH]c2ccccc21 (centres unmarked) [Example 10, 1-(1-Carboxy-1-phenylmethyl)quinoxaline-2,3(1H,4H)-dione] |  |
| 3000 nM | 900 nM |  | CC(C(=O)O)n1c(=O)c(=O)[nH]c2ccccc21 (centres unmarked) [Example 11, 1-((1-Carboxy)ethyl)quinoxaline-2,3(1H,4H)-dione] |  |
| 849 nM | 390 nM | 127 nM | O=C(O)Cn1c(=O)c(=O)[nH]c2cc(Br)c(Br)cc21 [Example 12, 1-Carboxymethyl-6,7-dibromoquinoxaline-2,3(1H,4H)-dione] |  |
| 8000 nM |  | > 3750 nM | COc1ccc2c(c1)n(O)c(=O)c(=O)n2CC(=O)O [Example 13, 1-Carboxymethyl-4-hydroxy-6-methoxyquinoxalin-2,3(1H,4H)-dione] |  |
| 587 nM | 49 nM | 2640 nM | CCCCCC(C(=O)O)n1c(=O)c(=O)[nH]c2cc(Br)ccc21 (centres unmarked) [Example 15, 1-((1-Carboxy)hexyl)-6-bromoquinoxaline-2,3(1H, 4H)-dione] |  |
| 409 nM | 100 nM |  | CCCCC(C(=O)O)n1c(=O)c(=O)[nH]c2cc(Cl)c(Cl)cc21 (centres unmarked) [Example 16, 1-((1-carboxy)pentyl)-6,7-dichloroquinoxaline-2,3(1H,4H)-dione] |  |
| 852 nM |  |  | O=C(O)Cn1c(=O)c(=O)[nH]c2cc(Cl)cc(Cl)c21 [Example 22, 1-Carboxymethyl-6,8-dichloroquinoxaline-2,3(1H, 4H)-dione] |  |
